From patent US20160221974A1, “SODIUM CHANNEL MODULATORS FOR THE TREATMENT OF PAIN AND DIABETES” (CHROMOCELL CORPORATION, priority 2013, published 2016)

Legend:
CYP3A4 = target: T1, CYP3A4 (Homo sapiens, UniProt P08684); experiment: In-Vitro Cytochrome P450 (CYP450) Inhibition Assay (Vivid CYP450); assay type: in vitro ADME; details: CYP3A4 enzyme complex (Vivid CYP450, Invitrogen), 6 μM test concentration
T1 construct: purchased Invitrogen
Protocol: We evaluated interaction of drug candidates with cytochrome P450 enzymes which are a major determinant of drug clearance via oxidative metabolism using a high throughput compatible, fluorescence based CYP450 screening assay (Vivid® CYP450, Invitrogen) according to manufacturer's directions.
In brief, test compounds at four different concentrations (μM—6.0, 2.0, 0.7, 0.2), a positive control (Ketoconazole) and a solvent control were incubated at room temperature in unique wells of a 96-well microtiter plate with CYP3A4 enzyme complex for 20 minutes. A pre-read fluorescence (Ex−485 nm/Em−530 nm) was measured at the start of the incubation using a Tecan Safire^2 microplate reader-monochromator to determine background fluorescence. At the end of the incubation period, enzyme substrate and co-enzyme were added and the reaction was kinetically monitored for 1 hour by measuring fluorescence every minute. Effect of test compounds on inhibition of CYP3A4 metabolism of provided substrate was determined by calculating the ratio of the effective reaction rate in presence of test compound to that in the absence of inhibitor.

NaV1.7 = target: T2, NaV1.7 (Homo sapiens, UniProt Q15858); experiment: Patchliner Electrophysiological In-Vitro Assay (NaV1.7); assay type: cell-based; details: Patchliner patch clamp, HEK293, holding at V1/2
T2 construct: expressed in transfected cells
T2 sequence (Q15858 whole entry): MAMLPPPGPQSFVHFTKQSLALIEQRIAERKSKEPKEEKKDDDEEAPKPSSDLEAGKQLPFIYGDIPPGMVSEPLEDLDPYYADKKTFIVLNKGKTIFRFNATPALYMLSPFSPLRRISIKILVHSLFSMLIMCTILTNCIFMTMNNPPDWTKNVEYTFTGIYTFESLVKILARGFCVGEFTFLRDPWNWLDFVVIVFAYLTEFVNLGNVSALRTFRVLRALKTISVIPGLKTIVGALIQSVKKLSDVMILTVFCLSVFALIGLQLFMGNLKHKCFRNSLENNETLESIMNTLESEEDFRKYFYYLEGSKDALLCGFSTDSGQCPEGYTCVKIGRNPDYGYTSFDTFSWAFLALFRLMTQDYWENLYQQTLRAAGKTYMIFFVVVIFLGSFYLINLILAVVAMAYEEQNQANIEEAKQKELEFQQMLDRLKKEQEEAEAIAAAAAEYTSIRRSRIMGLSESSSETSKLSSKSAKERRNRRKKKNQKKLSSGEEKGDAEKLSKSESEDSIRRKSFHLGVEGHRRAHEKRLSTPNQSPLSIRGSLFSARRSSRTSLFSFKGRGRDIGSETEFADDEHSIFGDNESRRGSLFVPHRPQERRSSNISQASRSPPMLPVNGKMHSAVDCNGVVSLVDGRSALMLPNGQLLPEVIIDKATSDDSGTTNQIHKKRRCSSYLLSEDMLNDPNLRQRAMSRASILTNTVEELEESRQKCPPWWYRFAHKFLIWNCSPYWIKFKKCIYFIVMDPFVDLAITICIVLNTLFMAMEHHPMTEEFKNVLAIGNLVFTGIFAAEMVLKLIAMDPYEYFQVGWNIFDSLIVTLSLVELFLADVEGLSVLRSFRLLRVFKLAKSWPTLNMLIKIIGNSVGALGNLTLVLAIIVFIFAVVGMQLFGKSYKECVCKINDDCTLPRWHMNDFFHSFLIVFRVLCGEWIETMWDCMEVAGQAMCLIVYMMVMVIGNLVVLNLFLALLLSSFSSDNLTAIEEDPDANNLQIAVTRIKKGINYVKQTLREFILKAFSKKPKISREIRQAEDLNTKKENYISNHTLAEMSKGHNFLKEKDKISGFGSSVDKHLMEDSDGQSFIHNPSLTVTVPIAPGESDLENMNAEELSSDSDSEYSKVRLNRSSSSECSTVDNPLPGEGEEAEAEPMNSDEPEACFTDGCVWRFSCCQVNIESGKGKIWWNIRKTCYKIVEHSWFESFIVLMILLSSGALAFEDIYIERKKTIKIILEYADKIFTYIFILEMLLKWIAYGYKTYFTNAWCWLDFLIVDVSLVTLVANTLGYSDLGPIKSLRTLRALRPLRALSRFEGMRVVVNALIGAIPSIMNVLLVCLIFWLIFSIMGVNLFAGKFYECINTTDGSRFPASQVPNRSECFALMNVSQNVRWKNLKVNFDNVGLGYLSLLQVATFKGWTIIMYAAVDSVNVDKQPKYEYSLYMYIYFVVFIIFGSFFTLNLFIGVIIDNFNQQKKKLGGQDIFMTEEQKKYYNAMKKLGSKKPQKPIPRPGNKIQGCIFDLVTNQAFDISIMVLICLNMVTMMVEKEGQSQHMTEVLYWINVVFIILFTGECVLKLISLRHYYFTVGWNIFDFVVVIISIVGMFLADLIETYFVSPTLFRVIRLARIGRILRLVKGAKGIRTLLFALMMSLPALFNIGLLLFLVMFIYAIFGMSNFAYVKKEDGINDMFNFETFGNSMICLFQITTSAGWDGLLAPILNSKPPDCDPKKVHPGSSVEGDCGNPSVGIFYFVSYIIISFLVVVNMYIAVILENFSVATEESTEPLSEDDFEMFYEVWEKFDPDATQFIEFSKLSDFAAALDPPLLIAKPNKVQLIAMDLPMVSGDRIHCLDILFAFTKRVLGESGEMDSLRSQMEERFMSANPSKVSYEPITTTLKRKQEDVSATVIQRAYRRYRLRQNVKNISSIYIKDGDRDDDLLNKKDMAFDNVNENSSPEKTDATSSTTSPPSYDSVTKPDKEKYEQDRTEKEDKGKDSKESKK
T2 sequence (Q07699 19-218 partner): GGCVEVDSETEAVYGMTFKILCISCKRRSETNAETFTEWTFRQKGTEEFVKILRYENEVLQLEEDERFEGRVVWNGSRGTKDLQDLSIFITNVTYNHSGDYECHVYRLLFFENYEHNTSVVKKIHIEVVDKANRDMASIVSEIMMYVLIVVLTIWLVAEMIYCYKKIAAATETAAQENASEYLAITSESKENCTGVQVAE
T2 sequence (O60939 30-215 partner): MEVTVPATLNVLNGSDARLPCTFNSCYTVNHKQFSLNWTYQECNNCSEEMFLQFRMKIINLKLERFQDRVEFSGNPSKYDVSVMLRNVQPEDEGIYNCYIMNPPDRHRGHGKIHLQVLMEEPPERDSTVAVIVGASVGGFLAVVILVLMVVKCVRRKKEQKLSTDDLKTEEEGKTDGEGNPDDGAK
Protocol: In vitro assays were performed in recombinant cell line that stably express a heterotrimeric protein of interest from an introduced nucleic acid encoding the alpha subunit (hNav1.7, SCN9A), the beta subunit (SCNB1) and the beta subunit (SCNB2). The cell line was engineered using Human Embryonic Kidney 293 cells as host background. Additional cell lines stably expressing recombinant Nav1.7 or Nav1.5 alpha subunit alone or in combination with various beta subunits can also be used in in-vitro assays.
(§1) The recording of sodium current from stable HEK293 cell lines expressing NaV1.7 or NaV1.5 was done on a Patchliner® instrument, Nanion Technologies. The Patchliner® is a fully automated bench-top patch clamp platform and can record simultaneously from up to eight single cells with GΩ seals.
(§2) For patch-clamp experiments, cells were grown under standard culturing conditions in Dulbecco's Modified Eagles medium supplemented with 10% fetal bovine serum, glutamine and HEPES. Cells were harvested and kept in suspension for up to 4 hours with no significant change in quality or ability to patch. Whole cell patch clamp recordings were conducted according to Nanion's standard procedure for the Patchliner®. Experiments were conducted at room temperature.
(§3) Voltage protocols were designed to establish: 1) peak current amplitude (Imax), 2) test potential (Vmax) and 3) half-inactivation potential (V1/2) for each of the eight individual cells. To determine V1/2, a standard steady-state inactivation protocol was executed using a series of fifteen 500 ms depolarizing pre-pulses in 10 mV increments (starting at −130 mV) and immediately followed by a 10 ms test pulse to Vmax. To estimate test compound affinity to the inactivated state of sodium channel (Ki), the holding potential for each cell was set automatically to the V1/2 calculated from a steady-state inactivation data. The current was activated with the following voltage protocol: holding at V1/2 for 2-5 seconds, return to the −120 mV for 5-10 ms to relieve fast inactivation, stepping to test potential (Vmax) for 10-20 ms. This voltage protocol was repeated every 10 seconds to establish the baseline with 2-3 buffer additions followed by the test compound addition. The dose-dependent inhibition was analyzed using Nanion's Data Analysis Package.

hNaV1.7 = target: T3, hNaV1.7 (Homo sapiens, UniProt Q15858); experiment: FDSS Membrane Potential In-Vitro Assay; assay type: cell-based; details: stimulation with veratridine and scorpion venom, read-out: NaV1.7 IC50
T3 construct: expressed in transfected cells
T3 sequence (Q15858 whole entry): as the sequence (Q15858 whole entry) above
T3 sequence (Q07699 19-218 partner): as the sequence (Q07699 19-218 partner) above
T3 sequence (O60939 30-215 partner): as the sequence (O60939 30-215 partner) above

[1] = tested on: Formalin Test (pain behaviors); experiment: Formalin Test (pain behaviors); assay type: in vivo, rat; details: relative to vehicle control; 150 μL of 1 or 2% w/v solution, topical route
NaV1.5 = target: T4, NaV1.5 (Homo sapiens, UniProt Q14524); experiment: Patchliner Electrophysiological In-Vitro Assay (NaV1.5); assay type: cell-based; details: Patchliner patch clamp, HEK293
T4 construct: expressed in transfected cells
T4 sequence (Q14524 whole entry): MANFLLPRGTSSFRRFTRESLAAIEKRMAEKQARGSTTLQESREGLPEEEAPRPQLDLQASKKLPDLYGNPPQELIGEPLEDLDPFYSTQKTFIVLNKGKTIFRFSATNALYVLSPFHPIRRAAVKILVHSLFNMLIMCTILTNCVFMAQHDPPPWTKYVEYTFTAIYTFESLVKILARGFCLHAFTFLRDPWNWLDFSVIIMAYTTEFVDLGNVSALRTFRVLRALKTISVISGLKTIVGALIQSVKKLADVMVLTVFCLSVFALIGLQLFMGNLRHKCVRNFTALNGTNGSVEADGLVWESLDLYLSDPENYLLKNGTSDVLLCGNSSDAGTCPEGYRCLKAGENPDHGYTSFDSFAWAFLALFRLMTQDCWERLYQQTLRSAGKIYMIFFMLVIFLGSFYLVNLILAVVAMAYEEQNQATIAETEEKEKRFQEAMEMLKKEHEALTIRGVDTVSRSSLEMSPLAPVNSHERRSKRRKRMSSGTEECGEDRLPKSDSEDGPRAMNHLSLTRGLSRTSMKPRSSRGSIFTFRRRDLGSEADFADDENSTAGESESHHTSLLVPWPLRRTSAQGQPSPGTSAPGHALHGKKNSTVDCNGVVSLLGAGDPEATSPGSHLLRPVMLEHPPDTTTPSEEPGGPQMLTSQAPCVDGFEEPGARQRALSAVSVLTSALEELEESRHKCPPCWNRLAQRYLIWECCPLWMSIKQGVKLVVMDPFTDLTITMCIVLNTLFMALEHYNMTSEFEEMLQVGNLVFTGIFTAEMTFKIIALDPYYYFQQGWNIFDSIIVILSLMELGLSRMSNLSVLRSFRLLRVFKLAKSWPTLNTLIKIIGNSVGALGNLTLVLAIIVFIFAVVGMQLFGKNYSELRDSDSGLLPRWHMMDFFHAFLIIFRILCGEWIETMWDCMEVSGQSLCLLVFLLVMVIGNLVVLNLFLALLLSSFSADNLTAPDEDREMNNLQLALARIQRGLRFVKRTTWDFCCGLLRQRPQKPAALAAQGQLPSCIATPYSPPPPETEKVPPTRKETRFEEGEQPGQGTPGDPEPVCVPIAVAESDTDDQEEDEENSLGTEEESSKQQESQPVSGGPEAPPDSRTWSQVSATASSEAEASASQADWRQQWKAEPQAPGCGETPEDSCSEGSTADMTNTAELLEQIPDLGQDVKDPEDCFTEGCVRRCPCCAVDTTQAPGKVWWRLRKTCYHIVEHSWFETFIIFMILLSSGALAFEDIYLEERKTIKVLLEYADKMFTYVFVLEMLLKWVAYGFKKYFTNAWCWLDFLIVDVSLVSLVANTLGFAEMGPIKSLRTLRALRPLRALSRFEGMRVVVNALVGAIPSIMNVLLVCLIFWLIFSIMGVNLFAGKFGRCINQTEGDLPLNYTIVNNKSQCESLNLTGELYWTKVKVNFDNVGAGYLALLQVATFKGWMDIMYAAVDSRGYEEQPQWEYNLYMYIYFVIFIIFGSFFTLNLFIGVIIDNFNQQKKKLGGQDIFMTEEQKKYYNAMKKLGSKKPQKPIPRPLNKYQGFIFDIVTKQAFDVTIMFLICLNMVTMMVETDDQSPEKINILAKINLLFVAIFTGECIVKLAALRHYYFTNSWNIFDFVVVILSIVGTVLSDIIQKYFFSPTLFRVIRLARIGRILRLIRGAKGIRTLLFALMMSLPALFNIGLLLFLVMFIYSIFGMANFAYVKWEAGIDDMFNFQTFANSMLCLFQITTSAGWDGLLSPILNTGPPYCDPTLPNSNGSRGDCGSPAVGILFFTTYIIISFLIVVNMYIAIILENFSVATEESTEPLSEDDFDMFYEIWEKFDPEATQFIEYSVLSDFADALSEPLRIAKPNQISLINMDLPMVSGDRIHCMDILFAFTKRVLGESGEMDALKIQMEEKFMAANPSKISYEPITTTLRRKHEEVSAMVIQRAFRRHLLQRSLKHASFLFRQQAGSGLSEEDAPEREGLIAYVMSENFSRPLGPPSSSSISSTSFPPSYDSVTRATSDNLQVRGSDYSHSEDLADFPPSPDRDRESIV
Protocol: as §1, §2, §3

T1 sequence (P08684 2-503 limits assumed): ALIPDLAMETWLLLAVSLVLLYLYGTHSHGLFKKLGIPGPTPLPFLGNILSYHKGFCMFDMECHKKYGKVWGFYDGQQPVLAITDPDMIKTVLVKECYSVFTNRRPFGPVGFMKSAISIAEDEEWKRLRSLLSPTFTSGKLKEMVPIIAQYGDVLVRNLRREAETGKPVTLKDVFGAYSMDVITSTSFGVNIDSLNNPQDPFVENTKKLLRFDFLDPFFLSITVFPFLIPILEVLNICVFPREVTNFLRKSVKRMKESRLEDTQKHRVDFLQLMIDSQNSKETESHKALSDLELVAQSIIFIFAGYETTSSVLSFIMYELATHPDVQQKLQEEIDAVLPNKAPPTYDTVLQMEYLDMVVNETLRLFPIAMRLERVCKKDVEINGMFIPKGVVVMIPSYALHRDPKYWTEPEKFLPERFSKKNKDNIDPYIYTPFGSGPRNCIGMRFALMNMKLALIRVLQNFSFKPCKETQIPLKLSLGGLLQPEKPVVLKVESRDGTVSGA

Row | SMILES | inhibition at 1 hour, 6 µM (CYP3A4) [%] | IC50 (NaV1.7) [nM] | IC50 (hNaV1.7) [nM] | reduction in pain response (formalin assay phase 2) [1] | reduction in pain response (formalin assay, phase 1) [1] | IC50 (NaV1.5) [nM]
1 | C[C@@H](NC(=O)c1cc(-c2cc(Cl)ccc2Oc2cc(F)c(S(=O)(=O)Nc3ncns3)cc2Cl)ccn1)C(=O)O [Compound 6, (R)-2-(4-(2-(4-(N-(1,2,4-thiadiazol-5-yl)sulfamoyl)-2-chloro-5-fluorophenoxy)-5-chlorophenyl)picolinamido)propanoic acid] | 25 to 50 | < 100 | 130 to 1000 |  |  | 
2 | C[C@H](NC(=O)c1cc(-c2cc(Cl)ccc2Oc2cc(F)c(S(=O)(=O)Nc3ncns3)cc2Cl)ccn1)C(=O)O [Compound 8, (S)-2-(4-(2-(4-(N-(1,2,4-thiadiazol-5-yl)sulfamoyl)-2-chloro-5-fluorophenoxy)-5-chlorophenyl)picolinamido)propanoic acid] | 25 to 50 | < 100 | 130 to 1000 |  |  | 
3 | O=C(O)CCNCCCc1cc(Cl)ccc1Oc1cc(F)c(S(=O)(=O)Nc2ncns2)cc1Cl [Compound 12, 3-((3-(2-(4-(N-(1,2,4-thiadiazol-5-yl)sulfamoyl)-2-chloro-5-fluorophenoxy)-5-chlorophenyl)propyl)amino)propanoic acid] | 50 to 100 | < 100 | < 130 | 29-43% | 13-24% | 
4 | O=C(O)CNCCCc1cc(Cl)ccc1Oc1cc(F)c(S(=O)(=O)Nc2nccs2)cc1Cl [Compound 13, 2-((3-(5-chloro-2-(2-chloro-5-fluoro-4-(N-(thiazol-2-yl)sulfamoyl)phenoxy)phenyl)propyl)amino)acetic acid] | 0 to 25 | < 100 | < 130 |  |  | 
5 | O=C(O)C1CCN(CCCc2cc(Cl)ccc2Oc2cc(F)c(S(=O)(=O)Nc3cscn3)cc2Cl)CC1 [Compound 14, 1-(3-(5-chloro-2-(2-chloro-5-fluoro-4-(N-(thiazol-4-yl)sulfamoyl)phenoxy)phenyl)propyl)piperidine-4-carboxylic acid] | 0 to 25 | 100 to 1000 | 1000 to 20000 |  |  | 
6 | NC1(C(=O)O)CCN(CCCc2cc(Cl)ccc2Oc2cc(F)c(S(=O)(=O)Nc3cscn3)cc2Cl)CC1 [Compound 16, 4-amino-1-(3-(5-chloro-2-(2-chloro-5-fluoro-4-(N-(thiazol-4-yl)sulfamoyl)phenoxy)phenyl)propyl)piperidine-4-carboxylic acid] | 25 to 50 | < 100 | < 130 |  |  | 
7 | NC(CCNCCCc1cc(Cl)ccc1Oc1cc(F)c(S(=O)(=O)Nc2cscn2)cc1Cl)C(=O)O (stereo not drawn) [Compound 17, 2-amino-4-((3-(5-chloro-2-(2-chloro-5-fluoro-4-(N-(thiazol-4-yl)sulfamoyl)phenoxy)phenyl)propyl)amino)butanoic acid] | 0 to 25 | 100 to 1000 | 1000 to 20000 |  |  | 
8 | O=C(O)CNCCCc1cc(Cl)ccc1Oc1cc(F)c(S(=O)(=O)Nc2nccs2)cc1F [Compound 18, 2-((3-(5-chloro-2-(2,5-difluoro-4-(N-(thiazol-2-yl)sulfamoyl)phenoxy)phenyl)propyl)amino)acetic acid] | 0 to 25 | 100 to 1000 | 130 to 1000 |  |  | 
9 | O=C(O)C1CCCN(CCCc2cc(Cl)ccc2Oc2cc(F)c(S(=O)(=O)Nc3cscn3)cc2Cl)C1 (stereo not drawn) [Compound 19, 1-(3-(5-chloro-2-(2-chloro-5-fluoro-4-(N-(thiazol-4-yl)sulfamoyl)phenoxy)phenyl)propyl)piperidine-3-carboxylic acid] | 0 to 25 | 100 to 1000 | 1000 to 20000 |  |  | 
10 | O=C(O)CNCCCc1ccccc1Oc1cc(F)c(S(=O)(=O)Nc2ncns2)cc1Cl [Compound 20, 2-((3-(2-(4-(N-(1,2,4-thiadiazol-5-yl)sulfamoyl)-2-chloro-5-fluorophenoxy)phenyl)propyl)amino)acetic acid] | 50 to 100 | < 100 | 130 to 1000 |  |  | 
11 | O=C(O)CNCCCc1cc(Cl)ccc1Oc1cc(F)c(S(=O)(=O)Nc2cscn2)cc1F [Compound 21, 2-((3-(5-chloro-2-(2,5-difluoro-4-(N-(thiazol-4-yl)sulfamoyl)phenoxy)phenyl)propyl)amino)acetic acid] | 0 to 25 | 100 to 1000 | 1000 to 20000 |  |  | 
12 | O=C(O)CCNCCCc1cc(Cl)ccc1Oc1cc(F)c(S(=O)(=O)Nc2cscn2)cc1F [Compound 22, 3-((3-(5-chloro-2-(2,5-difluoro-4-(N-(thiazol-4-yl)sulfamoyl)phenoxy)phenyl)propyl)amino)propanoic acid] | 0 to 25 | 100 to 1000 | 1000 to 20000 |  |  | 
13 | O=C(O)C1CCN(CCCc2cc(Cl)ccc2Oc2cc(F)c(S(=O)(=O)Nc3ncns3)cc2Cl)CC1 [Compound 32, 1-(3-(2-(4-(N-(1,2,4-thiadiazol-5-yl)sulfamoyl)-2-chloro-5-fluorophenoxy)-5-chlorophenyl)propyl)piperidine-4-carboxylic acid] | 50 to 100 | < 100 | < 130 |  |  | 
14 | CS(=O)(=O)CCNCCCc1cc(Cl)ccc1Oc1cc(F)c(S(=O)(=O)Nc2cscn2)cc1Cl [Compound 44, 5-chloro-4-(4-chloro-2-(3-((2-(methylsulfonyl)ethyl)amino)propyl)phenoxy)-2-fluoro-N-(thiazol-4-yl)benzenesulfonamide] |  | < 100 |  |  |  | > 10000
15 | O=S(=O)(Nc1nccs1)c1cc(Cl)c(Oc2ccccc2-c2cnn3c2NCCC3)cc1F [Compound 56, 5-chloro-2-fluoro-4-(2-(4,5,6,7-tetrahydropyrazolo[1,5-a]pyrimidin-3-yl)phenoxy)-N-(thiazol-2-yl)benzenesulfonamide] |  |  | 500 to 1000 |  |  | > 10000
16 | O=S(=O)(Nc1cscn1)c1cc(Cl)c(Oc2ccccc2-c2cnn3c2NCCC3)cc1F [Compound 58, 5-chloro-2-fluoro-4-(2-(4,5,6,7-tetrahydropyrazolo[1,5-a]pyrimidin-3-yl)phenoxy)-N-(thiazol-4-yl)benzenesulfonamide] |  | 1000 to 10000 | 1000 to 20000 |  |  | > 10000
